Measured values published in US8802664B2 (Bioproject, priority 2010, dated 2014).

Target: T1, human H4 receptor (Homo sapiens, UniProt Q9H3N8)
T1 construct: expressed in transfected cells
Assay: [3H]Histamine binding on membranes of CHO cells stably expressing human H4 receptor
How it was run: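 Nonspecific binding defined with 10 μM JNJ 7777120. Bound radioactivity collected on polyethyleneimine-treated GF/B filters and counted by liquid scintillation.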

T1 sequence (Q9H3N8 whole entry): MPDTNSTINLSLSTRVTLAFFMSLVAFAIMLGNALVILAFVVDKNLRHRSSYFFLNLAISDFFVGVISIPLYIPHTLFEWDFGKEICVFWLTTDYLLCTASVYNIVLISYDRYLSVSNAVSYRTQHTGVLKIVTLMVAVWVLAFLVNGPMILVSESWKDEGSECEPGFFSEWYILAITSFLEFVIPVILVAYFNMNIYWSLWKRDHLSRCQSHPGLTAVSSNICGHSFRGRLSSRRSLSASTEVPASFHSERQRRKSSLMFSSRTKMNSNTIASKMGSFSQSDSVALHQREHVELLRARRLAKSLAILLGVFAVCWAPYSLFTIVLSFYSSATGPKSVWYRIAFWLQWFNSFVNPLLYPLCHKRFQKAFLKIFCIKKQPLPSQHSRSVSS

Row | Structure (SMILES) | Ki or IC50 activity class
1 | CC(O)CSc1cccc(C(OC2CCN(C)CC2)c2nc3ccccc3s2)c1 (stereo not shown) [Example 255, 1-{3-[benzothiazol-2-yl(1-methylpiperidin-4-yloxy)methyl]phenylsulfanyl}propan-2-ol] | < 30 nM
2 | CCOc1cccc(C(OC2CCN(C)CC2)c2nc3ccccc3s2)c1 (stereo not shown) [Example 47, 2-[(3-ethoxyphenyl)(1-methylpiperidin-4-yloxy)methyl]benzothiazole] | < 30 nM
3 | CCCCCOc1cccc(C(NC2CCN(C)CC2)c2nc3ccccc3[nH]2)c1 (stereo not shown) [Example 95, [(1H-benzimidazol-2-yl)(3-pentyloxyphenyl)methyl](1-methylpiperidin-4-yl)amine] | < 30 nM
4 | CN1CCC(OC(c2cccc(-c3ccccc3CO)c2)c2nc3ccccc3s2)CC1 (stereo not shown) [Example 127, {3′-[benzothiazol-2-yl(1-methylpiperidin-4-yloxy)methyl]biphenyl-2-yl}methanol] | < 300 nM
5 | CN1CCC(NC(c2cccc(OCCCC3(C)OCCO3)c2)c2nc3ccccc3[nH]2)CC1 (stereo not shown) [Example 174, ((1H-benzimidazol-2-yl)-{3-[3-(2-methyl-[1,3]dioxolan-2-yl)-propoxy]phenyl}methyl)(1-methylpiperidin-4-yl)amine] | < 300 nM
6 | CN1CCC(OC(c2cccc(C#CCCNC(=N)N)c2)c2nc3ccccc3[nH]2)CC1 (stereo not shown) [Example 393, N-(4-{3-[(1H-benzimidazol-2-yl)(1-methylpiperidin-4-yloxy)methyl]phenyl}but-3-ynyl)guanidine] | < 30 nM
7 | CN1CCC(OC(c2cccc(SCCc3cnccn3)c2)c2nc3ccccc3[nH]2)CC1 (stereo not shown) [Example 232, 2-{(1-methylpiperidin-4-yloxy)[3-(2-pyrazin-2-yl-ethylsulfanyl)phenyl]methyl}-1H-benzimidazole] | < 1000 nM
8 | COc1ccc(-c2cccc(C(OC3CCN(C)CC3)c3nc4ccccc4s3)c2)cc1 (stereo not shown) [Example 100, 2-[(4′-methoxybiphenyl-3-yl)(1-methylpiperidin-4-yloxy)methyl]benzothiazole] | < 300 nM
9 | CN1CCC(OC(c2cccc(-c3ccc(F)cc3)c2)c2nc3ccccc3[nH]2)CC1 (stereo not shown) [Example 115, 2-[(4′-fluorobiphenyl-3-yl)(1-methylpiperidin-4-yloxy)methyl]-1H-benzimidazole] | < 300 nM
10 | COCCOc1cccc(C(OC2CCN(C)CC2)c2nc3ccccc3s2)c1 (stereo not shown) [Example 277, 2-[[3-(2-methoxyethoxy)phenyl](1-methylpiperidin-4-yloxy)methyl]benzothiazole] | < 300 nM
11 | CN1CCC(OC(c2cccc(C#CCCCNC(=N)N)c2)c2nc3ccccc3s2)CC1 (stereo not shown) [Example 340, N-(5-{3-[benzothiazol-2-yl(1-methylpiperidin-4-yloxy)methyl]phenyl}pent-4-ynyl)guanidine] | < 30 nM
12 | CN1CCC(OC(c2cccc(SCC(N)=O)c2)c2nc3ccccc3s2)CC1 (stereo not shown) [Example 263, 2-{3-[benzothiazol-2-yl(1-methylpiperidin-4-yloxy)methyl]phenylsulfanyl}acetamide] | < 1000 nM
13 | CN1CCC(OC(c2cccc(OCCCCn3cncn3)c2)c2nc3ccccc3s2)CC1 (stereo not shown) [Example 316, 2-{(1-methylpiperidin-4-yloxy)[3-(4-[1,2,4]triazol-1-yl-butoxy)phenyl]methyl}benzothiazole] | < 300 nM
14 | CN1CCC(OC(c2cccc(CCCCNC(=N)NC(=O)OC(C)(C)C)c2)c2nc3ccccc3[nH]2)CC1 (stereo not shown) [Example 309, N-tert-butoxycarbonyl-N′-(4-{3-[(1H-benzimidazol-2-yl)(1-methylpiperidin-4-yloxy)methyl]phenyl}butyl)guanidine] | < 300 nM
15 | CN1CCC(OC(c2nc3ccccc3[nH]2)c2cc(OC(F)(F)F)ccc2Cl)CC1 (stereo not shown) [Example 524] | < 300 nM
16 | CCN1CCC(OC(c2cccc(OCCN)c2)c2nc3ccccc3s2)CC1 (stereo not shown) [Example 290, 2-{3-[benzothiazol-2-yl(1-ethyl-piperidin-4-yloxy)methyl]phenoxy}ethylamine] | < 300 nM

Row | Structure (SMILES) | Ki or IC50 activity class
17 | CN1CCC(OC(c2cccc(C#CCCCn3nccn3)c2)c2nc3ccccc3[nH]2)CC1 (stereo not shown) [Example 416, 2-{(1-methylpiperidin-4-yloxy)[3-(5-[1,2,3]triazol-2-yl-pent-1-ynyl)phenyl]methyl}-1H-benzimidazole] | < 300 nM
18 | CN1CCC(OC(c2ccc(Cl)cc2)c2nc3ccccc3s2)CC1 (stereo not shown) [Example 4, 2-[(4-chlorophenyl)(1-methylpiperidin-4-yloxy)methyl]benzothiazole] | < 1000 nM
19 | CN1CCC(OC(c2cccc(OC3CCNC3)c2)c2nc3ccccc3[nH]2)CC1 (stereo not shown) [Example 461] | < 300 nM
20 | Cc1cccc(C(NC2CCN(C)CC2)c2nc3ccccc3s2)c1 (stereo not shown) [Example 21, [(benzothiazol-2-yl)(m-tolyl)methyl](1-methylpiperidin-4-yl)amine] | < 300 nM
21 | CN1CCC(OC(c2cccc(SCC3CNC(=O)O3)c2)c2nc3ccccc3[nH]2)CC1 (stereo not shown) [Example 457] | < 30 nM
22 | CN1CCC(OC(c2cccc(SCC(=O)NN)c2)c2nc3ccccc3s2)CC1 (stereo not shown) [Example 264, {3-[benzothiazol-2-yl(1-methylpiperidin-4-yloxy)methyl]phenylsulfanyl}acetic acid hydrazide] | < 300 nM
23 | CN1CCC(OC(c2cccc(OCCO)c2)c2nc3ccccc3s2)CC1 (stereo not shown) [Example 244, 2-{3-[benzothiazol-2-yl(1-methylpiperidin-4-yloxy)methyl]phenoxy}ethanol] | < 300 nM
24 | CN1CCC(OC(c2nc3ccccc3o2)c2cc(OC(F)(F)F)ccc2F)CC1 (stereo not shown) [Example 525, 2-[(2-fluoro-5-trifluoromethoxyphenyl)(1-methylpiperidin-4-yloxy)methyl]benzoxazole] | < 300 nM
25 | Nc1ccc(C(OC2CCNCC2)c2nc3ccccc3[nH]2)cc1 (stereo not shown) [Example 456, 4-[(1H-benzimidazol-2-yl)(piperidin-4-yloxy)methyl]aniline] | < 1000 nM
26 | CN1CCC(OC(c2cccc(OCc3cccc([N+](=O)[O-])c3)c2)c2nc3ccccc3s2)CC1 (stereo not shown) [Example 196, 2-{(1-methylpiperidin-4-yloxy)[3-(3-nitro-benzyloxy)phenyl]methyl}benzothiazole] | < 30 nM
27 | CSCc1cccc(C(OC2CCN(C)CC2)c2nc3ccccc3[nH]2)c1 (stereo not shown) [Example 528, 2-[(1-methylpiperidin-4-yloxy)(3-methylsulfanylmethylphenyl)methyl]-1H-benzimidazole] | < 300 nM
28 | CN1CCC(OC(c2cccc(OCCCO)c2)c2nc3ccccc3s2)CC1 (stereo not shown) [Example 258, 3-{3-[benzothiazol-2-yl(1-methylpiperidin-4-yloxy)methyl]phenoxy}propan-1-ol] | < 300 nM
29 | CN1CCC(OC(c2cccc(C=CCNC(=N)N)c2)c2nc3ccccc3[nH]2)CC1 (stereo not shown) [Example 499] | < 30 nM
30 | CN1CCC(OC(c2cccc(SCCCO)c2)c2nc3ccccc3s2)CC1 (stereo not shown) [Example 254, 3-{3-[benzothiazol-2-yl(1-methylpiperidin-4-yloxy)methyl]phenylsulfanyl}propan-1-ol] | < 30 nM
31 | CN1CCC(OC(c2cccc(SCCCCCN)c2)c2nc3ccccc3s2)CC1 (stereo not shown) [Example 305, 5-{3-[benzothiazol-2-yl(1-methylpiperidin-4-yloxy)methyl]phenylsulfanyl}pentylamine] | < 30 nM
